This note sets out measurements from patent US20250281424A1 (New York Blood Center, Inc, priority 2020, published 2025).

This assay concerns the target T1, human PF4 (Homo sapiens, UniProt P02776).
T1 construct: PF4 is a 70 amino acid, lysine-rich 7.8 kDa platelet-specific protein; made in house; host or cells: Escherichia coli BL21DE3 pLysS (pT7-7) and/or Drosophila S2 cells
T1 sequence (P02776 32-101): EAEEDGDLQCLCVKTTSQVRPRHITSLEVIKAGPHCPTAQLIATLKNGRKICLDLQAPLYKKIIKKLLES
The assay is described as follows: Inhibition of PF4 tetramer formation (BS3 cross-linking, SDS-PAGE). The format is biochemical. The settings on record: for inhibition at 1 µM / inhibition at 3 µM / inhibition at 5 µM / inhibition at 10 µM: read-out: % inhibition of PF4 tetramer formation at single concentration of inhibitor; for inhibition at 5 µM: 5 μM inhibitor; for inhibition at 10 µM: 10 μM inhibitor (column A); for IC50: read-out: IC50 of PF4 tetramer formation inhibition. In outline:
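Monomer, dimer, trimer and tetramer fractions were quantified by densitometry after reducing 12% SDS-PAGE of BS3-cross-linked (0.2 mM, 30 min, room temperature) PF4. Before cross-linking, 10 μg/ml E. coli-expressed human WT PF4 in PBS was exposed to compound for 15 min at 37° C or 60 min at room temperature; controls lacked compound.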

Regarding `CC(C(=O)C1C(=O)c2ccc(S(=O)(=O)c3ccc4c(c3)C(=O)C(C(=O)C(C)c3ccc(F)cc3)C4=O)cc2C1=O)c1ccc(F)cc1` (centres unmarked) [Example 243, 2-[2-(4-fluorophenyl)propanoyl]-5-({2-[2-(4-fluorophenyl)propanoyl]-1,3-dioxo-2,3-dihydro-1H-inden-5-yl}sulfonyl)-2,3-dihydro-1H-indene-1,3-dione], the inhibition at 1 µM (1 μM inhibitor) was 19%. Under “3 μM inhibitor (column A)”, the inhibition at 3 µM amounted to 21%.
As a reminder, the IC50 is the midpoint of a concentration-inhibition curve. With `CO[C@@H]1O[C@H](C(=O)C2C(=O)c3ccc(S(=O)(=O)c4ccc5c(c4)C(=O)C(C(=O)[C@H]4O[C@@H](OC)[C@H]6OC(C)(C)O[C@@H]64)C5=O)cc3C2=O)[C@H]2OC(C)(C)O[C@H]12` (stereo partly drawn) [Example 220, 2-[(3aS,4S,6R,6aS)-6-methoxy-2,2-dimethyl-tetrahydro-2H-furo[3,4-d][1,3]dioxole-4-carbonyl]-5-({2-[(3aS,4S,6R,6aS)-6-methoxy-2,2-dimethyl-tetrahydro-2H-furo[3,4-d][1,3]dioxole-4-carbonyl]-1,3-dioxo-2,3-dihydro-1H-inden-5-yl}sulfonyl)-2,3-dihydro-1H-indene-1,3-dione], the inhibition at 5 µM was 90%, the inhibition at 10 µM turned out to be 92% and the IC50 turned out to be 2500 nM.
For `CC(=O)C1C(=O)c2ccc(Oc3ccc4c(n3)C(=O)C(C(C)=O)C4=O)cc2C1=O` (centres unmarked) [Example 330, 6-acetyl-2-[(2-acetyl-1,3-dioxo-2,3-dihydro-1H-inden-5-yl)oxy]-5H,6H,7H-cyclopenta[b]pyridine-5,7-dione], the inhibition at 1 µM (1 μM inhibitor) turned out to be 6%. For the setting “3 μM inhibitor (column A)”, the inhibition at 3 µM turned out to be 22%.
Regarding `CC(=O)C1C(=O)c2ccc(S(=O)(=O)c3ccc4c(c3)C(=O)C(C(C)=O)C4=O)cc2C1=O` (centres unmarked) [Example 2, 5,5′-sulfonylbis(2-acetyl-1h-indene-1,3(2h)-dione)], the 50% inhibitory concentration (IC50) amounted to 18000 nM.
With `O=C(O)CCCC(=O)C1C(=O)c2ccc(-c3ccc4c(c3)C(=O)C(C(=O)CCCC(=O)O)C4=O)cc2C1=O` (centres unmarked) [Example 227, 5-[2′-(4-carboxybutanoyl)-1,1′,3,3′-tetraoxo-1H,1′H,2H, 2′H,3H,3′H-[5,5′-biinden]-2-yi]-5-oxopentanoic acid], the half-inhibitory concentration (IC50) worked out at 1800 nM.
Take `CC(=O)NCC(=O)C1C(=O)c2ccc(Oc3ccc4c(c3)C(=O)C(C(=O)CNC(C)=O)C4=O)cc2C1=O` (centres unmarked) [Example 298, N-[2-(5-{[2-(2-acetamidoacetyl)-1,3-dioxo-2,3-dihydro-1H-inden-5-yl]oxy}-1,3-dioxo-2,3-dihydro-1H-inden-2-yl)-2-oxoethyl]acetamide]: the “% inhibition of PF4 tetramer formation at single concentration of inhibitor” value (1 μM inhibitor, 1 µM) worked out at 32% and the “% inhibition of PF4 tetramer formation at single concentration of inhibitor” value (3 μM inhibitor (column A), 3 µM) is 60%.
On to `CC(C)OC/C(O)=C1/C(=O)c2ccc(C(=O)c3ccc4c(c3)C(=O)/C(=C(/O)COC(C)C)C4=O)cc2C1=O` [Example 380, 5-{1,3-dioxo-2-[2-(propan-2-yloxy)acetyl]-2,3-dihydro-1H-indene-5-carbonyl}-2-[2-(propan-2-yloxy)acetyl]-2,3-dihydro-1H-indene-1,3-dione], for which the inhibition at 1 µM (1 μM inhibitor) is 17%. Further, the inhibition at 3 µM (3 μM inhibitor (column A)) was found to be 30%.
For `O=C(c1ccc2c(c1)C(=O)C(C(=O)C1CCCS1(=O)=O)C2=O)c1ccc2c(c1)C(=O)C(C(=O)C1CCCS1(=O)=O)C2=O` (centres unmarked) [Example 371, 2-{5-[2-(1,1-dioxo-1λ^6-thiolane-2-carbonyl)-1,3-dioxo-2,3-dihydro-1H-indene-5-carbonyl]-1,3-dioxo-2,3-dihydro-1H-indene-2-carbonyl}-1λ^6-thiolane-1,1-dione], the inhibition at 1 µM (1 μM inhibitor) turned out to be 7%. Further, the inhibition at 3 µM (3 μM inhibitor (column A)) worked out at 11%.
Consider `CC(=O)OC[C@H]1O[C@@H](OC(C)=O)[C@H](NC(=O)C2C(=O)c3ccc(S(=O)(=O)c4ccc5c(c4)C(=O)C(C(=O)N[C@H]4[C@H](OC(C)=O)O[C@H](COC(C)=O)[C@@H](OC(C)=O)[C@@H]4OC(C)=O)C5=O)cc3C2=O)[C@@H](OC(C)=O)[C@@H]1OC(C)=O` (stereo partly drawn) [Example 400, [(2R,3S,4R,5R,6S)-3,4,6-tris(acetyloxy)-5-{5-[(1,3-dioxo-2-{[(2S,3R,4R,5S,6R)-2,4,5-tris(acetyloxy)-6-[(acetyloxy)methyl]oxan-3-yl]carbamoyl}-2,3-dihydro-1H-inden-5-yl)sulfonyl]-1,3-dioxo-2,3-dihydro-1H-indene-2-amido}oxan-2-yl]methyl acetate], for which the inhibition at 1 µM (1 μM inhibitor) is 17%. Besides, the inhibition at 3 µM (3 μM inhibitor (column A)) was found to be 21%.
In the case of `O=C1c2ccc(S(=O)(=O)c3ccc4c(c3)C(=O)C(C(=O)C3CCCCC3)C4=O)cc2C(=O)C1C(=O)C1CCCCC1` (centres unmarked) [Example 288, 2-cyclohexanecarbonyl-5-[(2-cyclohexanecarbonyl-1,3-dioxo-2,3-dihydro-1H-inden-5-yl)sulfonyl]-2,3-dihydro-1H-indene-1,3-dione], the IC50 turned out to be 3000 nM. Also, the inhibition at 1 µM (1 μM inhibitor) stood at 10%. The inhibition at 3 µM (3 μM inhibitor (column A)) was found to be 15%.
Turning to `O=C(c1ccc2c(c1)C(=O)C(C(=O)C1CCOC1)C2=O)c1ccc2c(c1)C(=O)C(C(=O)C1CCOC1)C2=O` (centres unmarked) [Example 146, 5-[1,3-dioxo-2-(oxolane-3-carbonyl)-2,3-dihydro-1H-indene-5-carbonyl]-2-(oxolane-3-carbonyl)-2,3-dihydro-1H-indene-1,3-dione], the inhibition at 5 µM was 44% and the inhibition at 10 µM stood at 40%.
For the compound `O=C(O)CNC(=O)C1C(=O)c2ccc(Oc3ccc4c(c3)C(=O)C(C(=O)NCC(=O)O)C4=O)cc2C1=O` (centres unmarked) [Example 307, 2-{[5-({2-[(carboxymethyl)carbamoyl]-1,3-dioxo-2,3-dihydro-1H-inden-5-yl}oxy)-1,3-dioxo-2,3-dihydro-1H-inden-2-yl]formamido}acetic acid], the inhibition at 1 µM (1 μM inhibitor) is 15%. Further, the inhibition at 3 µM (3 μM inhibitor (column A)) amounted to 47%.
As for `O=C(CN1CCCC1=O)C1C(=O)c2ccc(S(=O)(=O)c3ccc4c(c3)C(=O)C(C(=O)CN3CCCC3=O)C4=O)cc2C1=O` (centres unmarked) [Example 184, 5-({1,3-dioxo-2-[2-(2-oxopyrrolidin-1-yl)acetyl]-2,3-dihydro-1H-inden-5-yl}sulfonyl)-2-[2-(2-oxopyrrolidin-1-yl)acetyl]-2,3-dihydro-1H-indene-1,3-dione], the inhibition at 5 µM came out at 87%, the inhibition at 10 µM worked out at 95% and the IC50 was 2000 nM.
As to `CC(=O)NCC(=O)C1C(=O)c2ccc(C(=O)c3ccc4c(c3)C(=O)C(C(=O)CNC(C)=O)C4=O)cc2C1=O` (centres unmarked) [Example 181, N-(2-{5-[2-(2-acetamidoacetyl)-1,3-dioxo-2,3-dihydro-1H-indene-5-carbonyl]-1,3-dioxo-2,3-dihydro-1H-inden-2-yl}-2-oxoethyl)acetamide], the inhibition at 5 µM worked out at 86%, the inhibition at 10 µM was determined as 96% and the IC50 came out at 1600 nM.
In the same order, the values of `CC[C@H](NC(=O)OCc1ccccc1)C(=O)C1C(=O)c2ccc(S(=O)(=O)c3ccc4c(c3)C(=O)C(C(=O)[C@H](CC)NC(=O)OCc3ccccc3)C4=O)cc2C1=O` (some centres unmarked) [Example 166] are 59%, 84% and 3400 nM.
For the compound `O=C(c1ccc2c(c1)C(=O)C(C(=O)NCCOCC(F)(F)F)C2=O)c1ccc2c(c1)C(=O)C(C(=O)NCCOCC(F)(F)F)C2=O` (centres unmarked) [Example 67, 5,5′-carbonylbis(1,3-dioxo-n-(2-(2,2,2-trifluoroethoxy)ethyl)-2,3-dihydro-1h-indene-2-carboxamide)], the inhibition at 5 µM turned out to be 0% and the inhibition at 10 µM was found to be 20%.
In the case of `CC(C)(C)OC(=O)NCCCC(=O)C1C(=O)c2ccc(S(=O)(=O)c3ccc4c(c3)C(=O)C(C(=O)CCCNC(=O)OC(C)(C)C)C4=O)cc2C1=O` (centres unmarked) [Example 387, tert-butyl N-[4-(5-{[2-(4-{[(tert-butoxy)carbonyl]amino}butanoyl)-1,3-dioxo-2,3-dihydro-1H-inden-5-yl]sulfonyl}-1,3-dioxo-2,3-dihydro-1H-inden-2-yl)-4-oxobutyl]carbamate], where the note is “1 μM inhibitor”, the inhibition at 1 µM was determined as 16%. The inhibition at 3 µM (3 μM inhibitor (column A)) amounted to 52%.
As for `O=C(NCC1CCCO1)C1C(=O)c2ccc(S(=O)(=O)c3ccc4c(c3)C(=O)C(C(=O)NCC3CCCO3)C4=O)cc2C1=O` (centres unmarked) [Example 89, 5-[(1,3-dioxo-2-{[(oxolan-2-yl)methyl]carbamoyl}-2,3-dihydro-1H-inden-5-yl)sulfonyl]-1,3-dioxo-N-[(oxolan-2-yl)methyl]-2,3-dihydro-1H-indene-2-carboxamide], the inhibition at 5 µM stood at 38% and the inhibition at 10 µM is 66%.
Take `C[C@@H](C(=O)C1C(=O)c2ccc(S(=O)(=O)c3ccc4c(c3)C(=O)C(C(=O)[C@H](C)N(C)C(=O)OC(C)(C)C)C4=O)cc2C1=O)N(C)C(=O)OC(C)(C)C` (stereo partly drawn) [Example 156, tert-butyl N-[(2S)-1-[5-({2-[(2S)-2-{[(tert-butoxy)carbonyl](methyl)amino}propanoyl]-1,3-dioxo-2,3-dihydro-1H-inden-5-yl}sulfonyl)-1,3-dioxo-2,3-dihydro-1H-inden-2-yl]-1-oxopropan-2-yl]-N-methylcarbamate]: the inhibition at 5 µM is 94%, the inhibition at 10 µM is 100% and the IC50 was 6300 nM.
For `CC(C)(C)OC(=O)N1CC[C@@H](C(=O)C2C(=O)c3ccc(S(=O)(=O)c4ccc5c(c4)C(=O)C(C(=O)[C@@H]4CCN(C(=O)OC(C)(C)C)C4)C5=O)cc3C2=O)C1` (stereo partly drawn) [Example 376, tert-butyl (3R)-3-[5-({2-[(3R)-1-[(tert-butoxy)carbonyl]pyrrolidine-3-carbonyl]-1,3-dioxo-2,3-dihydro-1H-inden-5-yl}sulfonyl)-1,3-dioxo-2,3-dihydro-1H-indene-2-carbonyl]pyrrolidine-1-carboxylate], the inhibition at 1 µM (1 μM inhibitor) is 22%. Further, under “3 μM inhibitor (column A)”, the inhibition at 3 µM was found to be 62%.
